Assay: Transdermal delivery of melatonin: plasma level of melatonin after applying composition to skin of a subject
Conditions: human, plasma, topical, Plasma level of melatonin; for concentration at 1 h: 1 hr after transdermal administration; for concentration at 2 h: 2 hr after transdermal administration; for concentration at 4 h: 4 hr after transdermal administration; for concentration at 8 h: 8 hr after transdermal administration; for concentration at 0 h: 0 hr after transdermal administration
[1] = 3 mg, salt of tryptophan isopropyl ester, A− = Cl^−, 247.52 mM, 0.30 mL applied
[2] = 3 mg, salt of tryptophan isopropyl ester, A− = F^−, 262.85 mM, 0.30 mL applied
[3] = 3 mg, salt of tryptophan isopropyl ester, A− = I^−, 187.04 mM, 0.30 mL applied
[4] = 3 mg, salt of tryptophan isopropyl ester, A− = Lactate ion, 208.11 mM, 0.30 mL applied
[5] = 0.3 mL of 1% melatonin in water, Tryptophan isopropyl ester hydrochloride 247.52 mM, 0.3 mL applied to skin
[6] = 0.3 mL of 1% melatonin in water, salt of tyrosine isopropyl ester, A− = Benzoate ion, 202.65 mM, 0.30 mL applied
[7] = 0.3 mL of 1% melatonin in water, salt of tyrosine isopropyl ester, A− = Lactate ion, 221.97 mM, 0.30 mL applied
[8] = 2 mL of […] melatonin suspension in water, Table 21 control, A− N/A, helper esters 0 mM, 2.0 mL applied
[9] = 2 mL of […] melatonin suspension, Helper esters: None (0 mM), 2.0 mL applied to skin
[10] = 2-(Dibutylamino)ethyl 2-acetoxybenzoate hydrochloride 188.23 mM, 0.375 mL applied to skin
[11] = 2-(Diethylamino)ethyl 2-acetoxybenzoate hydrochloride 221.69 mM, 0.375 mL applied to skin
[12] = 3-(Diethylamino)propyl 2-acetoxybenzoate hydrochloride 212.24 mM, 0.375 mL applied to skin
[13] = 6-(Dimethylamino)hexyl 2-acetoxybenzoate hydrochloride 203.56 mM, 0.375 mL applied to skin
[14] = Proline hexyl ester hydrochloride 296.94 mM, 0.60 mL applied to skin
[15] = Proline isopropyl ester hydrochloride 361.41 mM, 0.60 mL applied to skin
[16] = Proline methyl ester hydrochloride 422.66 mM, 0.60 mL applied to skin
[17] = salt of tryptophan isopropyl ester, A− = Lactate ion, 208.11 mM, 0.30 mL applied
[18] = salt of tyrosine isopropyl ester, A− = AcO^−, 245.0 mM, 0.30 mL applied
[19] = salt of tyrosine isopropyl ester, A− = Benzoate ion, 202.65 mM, 0.30 mL applied
[20] = salt of tyrosine isopropyl ester, A− = Br^−, 230.16 mM, 0.30 mL applied
[21] = salt of tyrosine isopropyl ester, A− = Citrate ion, 168.49 mM, 0.30 mL applied
[22] = salt of tyrosine isopropyl ester, A− = Cl^−, 269.51 mM, 0.30 mL applied
[23] = salt of tyrosine isopropyl ester, A− = F^−, 287.91 mM, 0.30 mL applied
[24] = salt of tyrosine isopropyl ester, A− = I^−, 199.43 mM, 0.30 mL applied

SMILES: COc1ccc2[nH]cc(CCNC(C)=O)c2c1 [Melatonin]
- concentration at 1 h [1]: 2.5 ng/mL
- concentration at 2 h [1]: 2.8 ng/mL
- concentration at 4 h [1]: 2.7 ng/mL
- concentration at 8 h [1]: 2.5 ng/mL
- concentration at 0 h [2]: 0 ng/mL
- concentration at 1 h [2]: 2.6 ng/mL
- concentration at 2 h [2]: 2.8 ng/mL
- concentration at 4 h [2]: 2.9 ng/mL
- concentration at 8 h [2]: 2.6 ng/mL
- concentration at 0 h [3]: 0 ng/mL
- concentration at 1 h [3]: 2.3 ng/mL
- concentration at 2 h [3]: 2.3 ng/mL
- concentration at 4 h [3]: 2.2 ng/mL
- concentration at 8 h [3]: 2.1 ng/mL
- concentration at 0 h [4]: 0 ng/mL
- concentration at 1 h [4]: 1.9 ng/mL
- concentration at 0 h [5]: 0 ng/mL
- concentration at 1 h [5]: 2.5 ng/mL
- concentration at 2 h [6]: 2 ng/mL
- concentration at 4 h [6]: 1.8 ng/mL
- concentration at 8 h [6]: 1.7 ng/mL
- concentration at 0 h [7]: 0 ng/mL
- concentration at 1 h [7]: 1.7 ng/mL
- concentration at 2 h [7]: 1.8 ng/mL
- concentration at 4 h [7]: 2 ng/mL
- concentration at 8 h [7]: 1.6 ng/mL
- concentration at 0 h [8]: 0 ng/mL
- concentration at 1 h [8]: 0.1 ng/mL
- concentration at 2 h [8]: 0.1 ng/mL
- concentration at 4 h [8]: 0.1 ng/mL
- concentration at 8 h [8]: 0.1 ng/mL
- concentration at 4 h [9]: 0.1 ng/mL
- concentration at 8 h [9]: 0.1 ng/mL
- concentration at 0 h [10]: 0 ng/mL
- concentration at 1 h [10]: 1.6 ng/mL
- concentration at 2 h [10]: 1.9 ng/mL
- concentration at 4 h [10]: 1.8 ng/mL
- concentration at 8 h [10]: 1.6 ng/mL
- concentration at 0 h [11]: 0 ng/mL
- concentration at 1 h [11]: 2.3 ng/mL
- concentration at 2 h [11]: 2.6 ng/mL
- concentration at 4 h [11]: 2.7 ng/mL
- concentration at 8 h [11]: 2.4 ng/mL
- concentration at 0 h [12]: 0 ng/mL
- concentration at 1 h [12]: 2.1 ng/mL
- concentration at 2 h [12]: 2.2 ng/mL
- concentration at 4 h [12]: 2.3 ng/mL
- concentration at 8 h [12]: 2.1 ng/mL
- concentration at 0 h [13]: 0 ng/mL
- concentration at 1 h [13]: 1.7 ng/mL
- concentration at 2 h [13]: 2.1 ng/mL
- concentration at 4 h [13]: 2.1 ng/mL
- concentration at 8 h [13]: 1.9 ng/mL
- concentration at 0 h [14]: 0 ng/mL
- concentration at 1 h [14]: 1.1 ng/mL
- concentration at 2 h [14]: 1.2 ng/mL
- concentration at 4 h [14]: 1.3 ng/mL
- concentration at 8 h [14]: 1.2 ng/mL
- concentration at 0 h [15]: 0 ng/mL
- concentration at 1 h [15]: 1.4 ng/mL
- concentration at 2 h [15]: 1.4 ng/mL
- concentration at 4 h [15]: 1.5 ng/mL
- concentration at 8 h [15]: 1.4 ng/mL
- concentration at 0 h [16]: 0 ng/mL
- concentration at 1 h [16]: 1.2 ng/mL
- concentration at 2 h [16]: 1.4 ng/mL
- concentration at 4 h [16]: 1.3 ng/mL
- concentration at 8 h [16]: 1.3 ng/mL
- concentration at 2 h [17]: 2 ng/mL
- concentration at 4 h [17]: 1.9 ng/mL
- concentration at 8 h [17]: 1.8 ng/mL
- concentration at 0 h [18]: 0 ng/mL
- concentration at 1 h [18]: 1.8 ng/mL
- concentration at 2 h [18]: 2 ng/mL
- concentration at 4 h [18]: 1.9 ng/mL
- concentration at 8 h [18]: 21.8 ng/mL
- concentration at 0 h [19]: 0 ng/mL
- concentration at 1 h [19]: 1.6 ng/mL
- concentration at 0 h [20]: 0 ng/mL
- concentration at 1 h [20]: 2.3 ng/mL
- concentration at 2 h [20]: 2.7 ng/mL
- concentration at 4 h [20]: 2.7 ng/mL
- concentration at 8 h [20]: 2.6 ng/mL
- concentration at 0 h [21]: 0 ng/mL
- concentration at 1 h [21]: 2 ng/mL
- concentration at 2 h [21]: 2.3 ng/mL
- concentration at 4 h [21]: 2.2 ng/mL
- concentration at 8 h [21]: 2 ng/mL
- concentration at 0 h [22]: 0 ng/mL
- concentration at 1 h [22]: 2.1 ng/mL
- concentration at 2 h [22]: 2.9 ng/mL
- concentration at 4 h [22]: 2.7 ng/mL
- concentration at 8 h [22]: 2.8 ng/mL
- concentration at 0 h [23]: 0 ng/mL
- concentration at 1 h [23]: 2.2 ng/mL
- concentration at 2 h [23]: 2.8 ng/mL
- concentration at 4 h [23]: 2.8 ng/mL
- concentration at 8 h [23]: 2.5 ng/mL
- concentration at 0 h [24]: 0 ng/mL
- concentration at 1 h [24]: 2.1 ng/mL
- concentration at 2 h [24]: 2.3 ng/mL
- concentration at 4 h [24]: 2.3 ng/mL
- concentration at 8 h [24]: 2.1 ng/mL

Reference: patent US9962369B2, “Methods and compositions for transdermal delivery” (SPRAYABLE HOLDINGS, INC., priority 2014, dated 2018)
